pIC50: −log10 of the molar value.

This note sets out measurements from patent US6451828B1, “Selective inhibition of glutaminase by bis-thiadiazoles” (priority 2000, dated 2002).

In one experiment the target is T1, calpain 1 (Homo sapiens, UniProt P07384).
T1 sequence (P07384 1-714): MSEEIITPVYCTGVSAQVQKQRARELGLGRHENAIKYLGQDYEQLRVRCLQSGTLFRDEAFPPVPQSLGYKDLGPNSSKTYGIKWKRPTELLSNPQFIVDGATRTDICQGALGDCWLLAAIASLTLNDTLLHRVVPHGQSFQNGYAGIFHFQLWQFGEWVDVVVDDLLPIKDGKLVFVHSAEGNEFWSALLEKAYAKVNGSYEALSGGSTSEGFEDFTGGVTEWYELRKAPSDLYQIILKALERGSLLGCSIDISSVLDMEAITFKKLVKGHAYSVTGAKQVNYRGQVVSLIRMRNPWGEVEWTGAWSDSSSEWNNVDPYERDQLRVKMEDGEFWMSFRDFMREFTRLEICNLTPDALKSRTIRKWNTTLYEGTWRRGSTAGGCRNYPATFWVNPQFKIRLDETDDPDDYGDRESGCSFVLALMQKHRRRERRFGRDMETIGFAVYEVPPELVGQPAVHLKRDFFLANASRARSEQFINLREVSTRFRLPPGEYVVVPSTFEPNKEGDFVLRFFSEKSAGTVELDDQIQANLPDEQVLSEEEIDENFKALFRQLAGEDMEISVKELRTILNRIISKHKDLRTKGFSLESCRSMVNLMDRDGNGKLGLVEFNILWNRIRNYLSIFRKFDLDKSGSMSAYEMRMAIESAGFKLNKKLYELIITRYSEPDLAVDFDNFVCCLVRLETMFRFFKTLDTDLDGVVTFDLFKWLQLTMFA
T1 sequence (P04632 1-268 partner): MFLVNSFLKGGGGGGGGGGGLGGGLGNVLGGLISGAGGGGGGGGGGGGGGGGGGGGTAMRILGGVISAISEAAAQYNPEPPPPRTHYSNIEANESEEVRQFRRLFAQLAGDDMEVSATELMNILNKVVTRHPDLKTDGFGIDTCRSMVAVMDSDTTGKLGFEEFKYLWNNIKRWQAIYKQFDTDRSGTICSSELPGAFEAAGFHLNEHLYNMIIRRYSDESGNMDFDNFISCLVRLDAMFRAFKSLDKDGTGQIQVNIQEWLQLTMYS
The experiment in a line: Specificity: effect on mechanistically related enzyme. The format is biochemical. As to conditions: at 30 μM (data not shown). Here is the method: Specificity for glutaminase was evaluated at two levels. Compounds were evaluated for specific interactions with several thiol hydrolases (cathepsin B, caspase-9, calpain-1, and […]). These are cysteine proteases which are believed to function by a mechanisms similar to that of glutaminase. Compounds were also evaluated for effects on intracellular amino acids and nucleotides in CACO2 (intestinal epithelial) cells (Example 5), and for effects on amino acids in primary cultures of cerebellar neurons (granule cells) and astrocytes (Examples 6-7). These measurements reflect interactions with other glutamine utilizing enzymes involved in amino acid and nucleic acid biosynthesis and homeostasis. For example, a decrease in cytidine triphosphate (CTP) and an increase in uridine triphosphate (UTP) on treatment with DON (6-diazo-5-oxo-L-norleucine), a known nonselective antiglutamine affinity label, is indicative of inhibition of the activity of CTP synthetase, for which UTP is the substrate and CTP the product.

Experiment [1] deals with intestinal epithelial (CACO2) cells. The experiment in a line: Intracellular amino acids in intestinal epithelial cells. The format is cell-based. Here is the method:
When the cells reached about 80% confluency, fresh glutamine was added to 2 mM. […] After 6.5 h of incubation, cultures were washed twice with phosphate buffered saline and extracted with 100 μL 1M perchloric acid. Extracts were neutralized with 30 μL of 5M potassium carbonate, centrifuged, and analyzed by HPLC for nucleotides, as described in Di Pierro et al. 1995, and for amino acids, as described in Lo et al. 1998. Results are shown in FIG. 5A (amino acids) and FIG. 5B (nucleotides).

Another experiment has as its system cerebellar granule cells. The experiment in a line: Intracellular amino acids in primary cultures of cerebellar granule cells. The format is cell-based. How it is done: After 5 h incubation, the cultures were washed twice with phosphate buffered saline, extracted with perchloric acid and analyzed for amino acids as described for FIG. 5A. To produce dose response curves for lowering of intracellular Glu and Asp (FIG. 6A-B), the procedure was repeated with 4 days (for cerebellar granule cells) and 12 days of incubation (for astrocytes). […] Results are shown in FIGS. 6A-B. Data are expressed as the ratio of Glu, Asp, or GABA to Ala (neurons and astrocytes) or Ser (astrocytes).

Where [2] appears, read: CACO2, 10 nM to 10 μM, 6.5 h, FIG. 5A.

The term pIC50 denotes the IC50 on a negative log10 scale, so that one unit is a factor of ten. As to `O=C(Cc1ccccc1)Nc1nnc(CCSCCc2nnc(NC(=O)Cc3ccccc3)s2)s1` [SNX-1770, bis-2′-[5-(phenylacetamido)-1,3,4-thiadiazol-2-yl]ethyl sulfide], the “Effect on calpain 1” value on calpain 1 is on record as “Nor did it have any effect”. Moreover, the “Effect on glutamate in cell extracts” value in experiment [1] (setting [2]) is “dose dependent decrease”. The “Effect on glycine or taurine in cell extracts” value in experiment [1] (setting [2]) was “no effect”. Further, the “Lowering of cellular glutamate” value in experiment [1] (CACO2 cells, partial and specific) is recorded as around 30%; in the experiment on cerebellar granule cells (granule cell neurons, partial and specific), around 30%. In addition, the “Effect on intracellular (non-glutamate) amino acids, including serine, glycine, arginine, alanine, taurine” value is on record as “no effect” in experiment [1] (at 10 μM, intestinal epithelial cells) and “no effect” with cerebellar granule cells (at 10 μM, cultured cerebellar neurons). Besides, the “Effect on cellular GABA” value in the experiment on cerebellar granule cells (granule cells, levels up to 10 μM, FIG. 6C) was “no effect”. Besides, the pIC50 in the experiment with cerebellar granule cells (primary cultures of cerebellar granule cells, read-out: IC50, lowering of cellular glutamate) was 7.00 to 7.30.
